Test results as given in patent US20100028402A1, “NANOPARTICLE-BASED ANTICOAGULANT” (priority 2006, published 2010).
≈ marks a conversion by molar mass, not a printed value.

How the values were obtained:
[1] = system: platelets (human platelet-rich plasma); assay: Platelet aggregation assay, with and without collagen; assay type: cell-based
Method: Platelet Aggregation Assay. […] The concentration of the nanoparticle was determined by considering the following parameters: i) the solubility of the nanoparticle in a biocompatible buffer; ii) maintaining the pH within a physiological range (pH 7±0.5); iii) availability of nanoparticle; and iv) stability of the nanoparticle. […] The assay required 150 μL of test material.
Platelet-rich plasma (PRP) was obtained from fresh pooled human whole blood by spinning freshly drawn blood for 8 minutes at 200 g. PRP was then pooled from at least 3 different donors. It is to be noted that during phlebotomy, the first 2 mLs of blood was discarded. Further, PRP was prepared as soon as possible from the time of obtaining the blood sample and no longer than 1 hour after blood collection. PRP was kept at room temperature and was used within 4 hours of its isolation. Exposure of either the blood or PRP to cold temperatures (<20° C.) was avoided because such temperatures induce platelet aggregations.
Three test tubes for the test sample, two tubes for the positive control and two tubes for the negative control were prepared. Twenty-five microliters of the test sample, positive control or negative control were added to the respective tubes. These samples provided data on the ability of the test nanoparticle to induced platelet aggregation. A second set of tubes were prepared for test-particles plus collagen. These set of tubes provided data on the ability of test-particles to interfere with platelet aggregation caused by collagen. For this set of studies, 25 μL of the positive control and 25 μL of the test nanoparticle was added to each “test-particles plus collagen” tube. Further, 50 μL of the negative control was added to each negative control tube and 25 μL of the positive control and 25 μL of RPMI was added to each positive control tube. In addition, one control tube with 100 μL of phosphate buffer saline (PBS) or RPMI and 25 μL of the nanoparticles was prepared to determine any potential particle interference with instrument counting procedure.
PRP was added to the appropriate tubes, samples were briefly vortexed and then incubated with control or test sample for 15 minutes at a nominal temperature of 37° C. After the incubation period, 10 mL of Isoton II diluent was added into blood cell counter vials. Two vials were prepared for each sample replicate. Twenty microliters of PRP treated with positive control, negative control or test-nanoparticle was then added to the each vial. Vials were covered and gently inverted to mix the diluted samples. PRP was analyzed by a Z2 Particle Count and Size Analyzer (Beckman Coulter) to determine the number of active platelets. Percent Coefficient of Variation (% CV) was equal to the standard deviation divided by the mean multiplied by 100. Platelet count=(5×RC)/100=# platelets×10^9/L. Further, percent platelet aggregation (% aggregation)=Control Platelet Count−Sample Platelet Count/Control Platelet Count×100). The percent coefficient of variation for each control and test sample was within 25%. […] Percent platelet aggregation above 20% was considered to be positive (for example, test-particle induces platelet aggregation).

[2] = system: porcine proximal tubule epithelial cells (LLC-PK1); assay: MTT and LDH cytotoxicity assays, kidney cells; assay type: cell-based; conditions: 1.0 to 0.004 mg/mL
Method: (§1) The cytotoxicity of AF1, AF3, C3, DF1 and NCL22 on porcine proximal tubule epithelial cells (LLC-PK1) was determined by a method that includes a 3-(4,5-Dimethyl-2-thiazolyl)-2,5-diphenyl-2H-tetrazolium bromide (MTT) reduction and lactate dehydrogenase (LDH) release assays. MTT that is a yellow water-soluble tetrazolium dye that is reduced by live cells to a water-insoluble purple formazan. The amount of formazan can be determined by solubilizing the formazan in DMSO and measuring it spectrophotometrically. Comparisons between the spectra of treated and untreated cells can give a relative estimation of cytotoxicity. (See, Alley et al. Cancer Res. 48: 589-60, 1988 which is hereby incorporated by reference in its entirety). The LDH assay is based upon LDH (a cytoplasmic enzyme that is released into the […] upon cell lysis) oxidizing lactate to pyruvate, pyruvate reacting with a tetrazolium salt INT to form formazan, and the water-soluble formazan dye being detected spectrophotometrically. Thus, the LDH assay is a measure of membrane integrity. […]
(§2) Briefly, for assays employing porcine kidney epithelial cells, such cells were plated at […] in a 96 well plate. […] Cytotoxicity was then determined by MTT and LDH assays.

[3] = MTT and LDH cytotoxicity assays, kidney cells; assay type: cell-based, porcine; conditions: pig, LLC-PK1 porcine proximal tubule epithelial cells, treated 6, 24 or 48 hours, 1.0 to 0.004 mg/mL, read-out: LC50 (the source's name)
Method: as §1, §2

Nanoparticle dimension = assay type: physicochemical
[4] = system: red blood cells (pooled normal human whole blood); assay: Hemolysis assay; assay type: cell-based
Description: Hemolysis Assay. This assay employs a protocol for quantitative colorimetric determination of hemoglobin in whole blood (total blood hemoglobin—TBH) and hemoglobin released into plasma (plasma free hemoglobin—PFH) when blood was exposed to nanoparticles. In brief, hemoglobin and its derivatives, except sulfhemoglobin, were oxidized to methemoglobin by ferricyanide in the presence of alkali. Cyanmethemoglobin (CMH) was formed from the methemoglobin by its reaction with cyanide (Drabkin's solution) and then detected by spectrophotometer set at 540 nm. The hemoglobin standard was used to build a standard curve covering the concentration range from 0.025 to 0.80 mg/mL and to prepare quality control samples at low (0.0625 mg/mL), mid (0.125 mg/mL) and high (0.625 mg/mL) concentrations to monitor assay performance. Required sample volume was 300 μL, e.g., 100 μL per test-replicate. The results expressed as percent of hemolysis were used to evaluate the acute in vitro hemolytic properties of nanoparticles.
The following reagents were used in the assay: cyanmethemoglobin (CMH) reagent, (StanBio, cat. # 0321-380); hemoglobin standard (StanBio, cat. # 0325-006); Ca/Mg free DPBS (Sigma, catalogue no: D8537); pooled normal human whole blood anti-coagulated with Li-heparin; poly-L-Lysine hydrobromide (MW 150 000-300 000, Sigma, cat #P1399); polyethylene glycol (av. MW 8 000, Sigma cat # P1458); and distilled water. It is contemplated that equivalent reagents from other vendors can be used.
The positive control was prepared by dissolving poly-L-Lysine powder to a final concentration of 1% (10 mg/mL) in sterile distilled water. […] Alternatively, 1% TritonX-100 in water was used as a positive control. […]
Whole blood was collected in tubes containing Li-heparin as anti coagulant from at least three donors. […] The plate was then read by use of a plate reader at an absorbance of 540 nm to determine hemoglobin concentration. […] If calculated PFH concentration was below 1 mg/mL pooled whole blood was diluted with Ca^2+/Mg^2+ free DPBS to adjust total hemoglobin concentration to 10±2 mg/mL. […]

[5] = system: murine bone marrow myeloid precursors; assay: CFU-GM assay (myelosuppression); conditions: FIG. 3
Method: CFU-GM Assay. The granulocyte-macrophage colony-forming units (CFU-GM) assay employed murine bone marrow (BM). […] The BM cells were isolated from 8-12 week old mice and cultured in methylcellulose-based medium supplemented with cytokines (mSCF, mIL-3 and hIL-6) either untreated (baseline) or treated with nanoparticles (test). These cytokines promoted formation of granulocyte and macrophage (CFU-GM) colonies. After twelve days of incubation at 37° C. in the presence of 5% CO2 and 95% humidity number of colonies was quantified in baseline and test samples. A percent of CFU inhibition was then calculated for each test sample. The basic protocol for BM isolation and culture was adopted from technical manual # 28405 developed by StemCell Technologies Inc. The assay required 450 μL of a test-nanoparticles, MethoCult medium (StemCell Technologies Inc cat. # 03534), Fetal Bovine Serum prescreened for hematopoietic stem cells (StemCell Technologies Inc. cat. # 06200), Iscove's MDM with 2% FBS (StemCell Technologies Inc cat. # 07700), sterile distilled water, blunt-end 16 gauge needles (StemCell Technologies Inc cat. # 03534 2.6), cisplatin (positive control; Sigma cat #P4394), Sterile Ca^2+/Mg^2+-free DPBS (negative control; Sigma D8537). […]
The CFU-GM assay required 450 μL of nanoparticles, e.g., three 150 μL samples, each of which is analyzed in duplicate. […]

Q: Which “collagen-induced platelet aggregation in presence of compound” value ([1]; compound 200 μg/mL, collagen 20 μg/mL (collagen alone greater than 60%), FIG. 4) does the source give for `O=C(O)C1(C(=O)O)C2c3ccc4c5c3-c3c6c7c8c9c3C53C(C(=O)O)(C(=O)O)C35C(=C4)Cc3cc4c(c-9c35)C83C(CC4)(CC7CC621)C3(C(=O)O)C(=O)O` (stereo not shown) [C3, C60(>C(COOH)2)3] here?
A: approximately 15%

Q: And the “toxicity to kidney cells” value [2]?
A: minimally toxic

Q: What about the CC50 [3] of the same compound?
A: 207 µg/mL (≈ 293 µM)

Q: What about the dimension (Nanoparticle dimension) of the same compound?
A: 1.57 nm

Q: And the percent of hemolysis ([4]; human, 3 h)?
A: less than 2%

Q: And the “protection of bone marrow cells from myelosuppression caused by cisplatin” value ([5]; with cisplatin (50 μM))?
A: none of the tested substituted fullerenes were able to protect the bone marrow cells

Q: What does the source list for `CC(=O)Oc1ccccc1C(=O)O` [aspirin]?
A: effect on collagen-induced platelet aggregation ([1]; 167 μg/mL, collagen 25 μg/mL, FIG. 5): significant reduction in collagen-induced platelet aggregation; dose dependence of inhibition of collagen-induced platelet aggregation ([1]; 167, 33.4 and 16.7 μg/mL, collagen 25 μg/mL, FIG. 5): dose dependent

Q: For `N.N.[Cl][Pt][Cl]` [cisplatin], which myelosuppressive effect ([5]; positive control, 50 μM) is on record?
A: myelosuppression caused by cisplatin treatment

Q: With Triton X-100 as the compound, how does the “hemolysis by positive control” value [4] read?
A: 90±5%

Q: What about the “hemolysis of the red blood cells” value [4] of the same compound?
A: greater than 80%

Q: Which results are given for collagen?
A: platelet aggregation induced ([1]; collagen 20 μg/mL, FIG. 4): greater than 60%; platelet aggregation induced ([1]; collagen 25 μg/mL, FIG. 5): greater than 80%
